Measurements reported in US20240174985A1, “METHOD FOR PRODUCING OVARIAN SOMATIC CELL-LIKE CELLS, AND METHOD FOR INDUCING DIFFERENTIATION OF PRIMATE PLURIPOTENT STEM CELLS INTO OVARIAN SOMATIC CELL-LIKE CELLS” (Kyoto University, priority 2021, published 2024).
Like-named read-outs stand apart in the source and are kept apart here.

Experiments:
Type in all cases: cell-based
[1] = system: cynomolgus monkey ES cells; details: for concentration considered the best in step 2: conclusion at the time of experiment 21; for induction of NR5A1-positive cells: addition in step 1 (BMS493 1 μM), FACS day 14
[2] = system: cynomolgus monkey ES cells
Source text: In order to conveniently observe the expression of genes represented by each developmental stage, the stop codons of TBXT, OSR1, NR5A1, FOXL2, WT1, and GATA4 were deleted from the cynomolgus monkey female ES15XRi cell strain using a Cas9 nickase and gene targeting, 2A and EGFP (TBXT, NR5A1), tdTomato (OSR1, FOXL2, and WT1), and 2A and mTagBFP2 (GATA4) were inserted, and then a drug-resistant cassette sandwiched between loxP's was knocked in (FIGS. 24A to 24F; and in FIG. 24A to FIG. 24F, “PGK” represents a PGK promoter). Thereafter, the drug-resistant cassette was removed using Cre to manufacture the following five double reporter cell strains. • (1) TBXT-EGFP/OSR1-tdTomato (which may be hereinafter abbreviated as a “TGOT strain”); • (2) NR5A1-EGFP/FOXL2-tdTomato (which may be hereinafter abbreviated as a “NGFT strain”); • (3) a single reporter strain of NR5A1-EGFP (which may be hereinafter abbreviated as an “NG-Puro strain”. This strain has not been subjected to the removal of the drug-resistant cassette by Cre); • (4) a triple reporter strain of WT1-tdTomato/GATA4-mTagBFP2/NR5A1-EGFP (which may be hereinafter abbreviated to as a “WTGBNG strain”); and • (5) WT1-tdTomato/NR5A1-EGFP (which may be hereinafter abbreviated as a “WTNG strain”).
(§1) The cells at each stage were analyzed using a flow cytometer (BD FACSAria III).
At the time of induction, the ES cells were cultured on mouse embryonic fibroblasts (MEF), which are feeder cells, treated with a proteolytic enzyme solution (CTK: collagenase, trypsin, and KSR), and then dissociated up to a single-cell level using TrypLEselect. Next, each of 30,000 cells was seeded in a low-adhesive 96-well U-bottom culture plate (hereinafter, step 1 was started by the same method unless otherwise specified). A TGOT No. 25 strain was used as a cell strain. The presence or absence of the ROCK inhibitor (Y-27632) in step 1 was examined. In FIG. 25A, the base medium GK7.5 has a composition of GMEM, 7.5 v/v % KSR, 0.1 mM 2-ME, 0.1 mM non-essential amino acid (NEAA), 1 mM sodium pyruvate, 100 U/mL penicillin/streptomycin, and 2 mM L-glutamine. The induction was performed for a period in step 1 of 2 days and in step 2 of 2 days. In step 2, PD173074 was used instead of PD0325901 used in mice. PD173074 is an inhibitor of FGF, whereas PD0325901 is an MEK inhibitor downstream of the FGF signaling pathway.

human iPS cells [3] = test: Induction of differentiation from human iPS cells into ovarian somatic cell-like cells (FACS of OSR1-tdTomato/NR5A1-EGFP reporters, observation of embryoid bodies)
Source text: In order to conveniently observe the expression of genes typical at each developmental stage, a human iPS cell line 1390G3 was genetically modified, and a DNA sequence that emits red fluorescence (tdTomato) with the expression of the OSR1 gene, green fluorescence (EGFP) with the expression of the NR5A1 gene, and red fluorescence (tdTomato) with the expression of the FOXL2 gene was manufactured (see FIG. 1, and after introduction into the chromosome, a portion of “PGKp-Neo (or Puro)-pA” portion was deleted with Cre). An iPS cell line into which two DNA sequences of OSR1 and NR5A1 had been introduced (which may be hereinafter abbreviated as “OTNG”), and an iPS cell line into which two DNA sequences of NR5A1 and FOXL2 had been introduced (which may be hereinafter abbreviated as “NGFT”) were manufactured. In the present test, the OTNG strain was used in most of the experiments. Furthermore, NR5A1 and SF1 are the same gene.
as §1
The ES cells of monkeys and human iPS cells are considered to be similar to EpiLC in a slightly advanced state in terms of differentiation, as compared with mouse ES cells. Therefore, in the examination using monkey or human pluripotent stem cells in the present test, step 0 was omitted and the process was started from step 1. […] For this reason, Y27632 was added to step 1 to perform examination. In addition, a 96-well V-bottom plate was used as a culture plate and the cells were seeded so as to have 10,000 cells per well.
In a test using human cells, the base medium was changed from GMEM (used in mice) to DMEM including 7.5 v/v % KnockOut (registered trademark) Serum Replacement (KSR). In addition, the base medium includes 0.1 mM 2-mercaptoethanol, 100 U/mL penicillin/streptomycin, and 2 mM GlutaMax (registered trademark), but the additives and concentrations thereof are fixed, and the description following “2.” is omitted. The periods of step 1 and step 2 were set to be the same as those in the mouse protocol, and culture was continued under the condition of step 3. The entire medium was basically changed every two or three days. At the time of subculturing iPS cells, 30,000 cells were seeded on a low-adhesive plate to start the culture as aggregates.

human iPS cells [4] = test: Quantitative PCR of marker genes in cells induced from human iPS cells; details: bFGF 5 ng/ml added in step 1; day 15 of induction
Source text: The relative expression level of each marker gene was confirmed using a PCR apparatus (BIO-RAD CFX384 Real-Time System) with the following primers and conditions. In the tables, the PPIA gene and the RPLP0 gene were used as housekeeping genes. The difference in qPCR is a difference from the average value taken as “(PPIA+RPLP0)/2”. In addition, the ERCC gene was used as an absolute control between samples.

[5] = system: cynomolgus monkey ES cells; test: Quantitative PCR of marker genes in cells induced from cynomolgus monkey ES cells; details: without BMP4 and with the addition of LDN in step 1
Procedure: The relative expression level of each marker gene was confirmed using a PCR apparatus (BIO-RAD CFX384 Real-Time System) with the following primers and conditions. In the table, the primers of PAX3, OSR1, PAX2 #3, EMX2 #1, WT1 #2, and LHX9 #2 were used only in the experiment of FIG. 31C, and the primers of OSR1 #10, CXCL12×4, BMP2, and BMP4 were used only for the experiment in FIG. 57C. The GAPDH gene and the PPIA gene were measured as housekeeping genes, and relative values with the average of Ct values of the two genes as a control value are shown in the graph. Although not shown in the graph, ERCC-00096, ERCC-00009, ERCC-00022, and ERCC-00025 were used in combination as a control, except for the experiment of FIG. 31C.

[6] = added to each condition in step 3 (16 patterns), day 16
[7] = one cytokine added with EGF in step 3, compared with no cytokine control (CK−), BMP4 1 ng/ml, SHH 30 ng/mL, PD0325901 1 μM, RA 3 μM, day 16
[8] = one cytokine added with EGF in step 3, compared with no cytokine control (CK−), day 16
[9] = concentration of LDN increased in step 1 (30, 100, 1,000 nM)

## EGF: epidermal growth factor
[1]
  concentration considered the best in step 2: 50 ng/mL
[1]; no addition of EGF in step 1 and step 2, FACS day 16, NGFT No. 69
  necessity for induction: not essential

## BMP4: bone morphogenetic protein 4
[2]; increasing the amount of BMP in step 1, CHIR99021 14 μM or more
  expression of OSR1: enhanced
[1]
  embryoid bodies (size; concern about cytotoxicity): the same tendency was recognized
  concentration considered the best in step 2: 1 ng/mL
[1]; BMP4 0, 1, 5, 10 and SHH 0, 30, 60, 100 ng/ml tested, FACS day 16
  best concentration in step 2 (induction efficiency): 1 ng/mL
[1]; BMP4 0, 1, 20, 50 and FGF9 0, 2, 10, 20 ng/ml tested, FACS day 16
  concentration in step 3 that most induced NR5A1-positive cells: 1 ng/mL
[1]; BMP4 not added after step 2 (four-step method), FACS day 16
  induction efficiency: higher
[1]; [6]
  number of induced cells: decreased only in a case where BMP4 was added to EGF+RA (ER+B)
[1]; by the amount of BMP4 added in step 1 (1, 3, 10 ng/ml), CHIR 10 μM
  expression of OSR1: increase
[1]; [7]
  induction efficiency: reduced
[1]; [8]
  number of induced cells: large
[1]; periods 3-3-10 (days), day 16
  concentration in step 1 at which number and proportion of the positive cells were maximal: 0 ng/mL

## C[C@@H](N)[C@H]1CC[C@H](C(=O)Nc2ccncc2)CC1 [Y-27632]
[2]; without Y-27632 in step 1, day 2 of induction, TGOT No. 25 strain
  efficiency of forming cell aggregates (embryoid bodies): significantly low

## CC1(C)CC=C(C#Cc2ccccc2)c2cc(/C=C/c3ccc(C(=O)O)cc3)ccc21 [BMS493]
[1]; 1 μM in step 1, FACS days 2, 4, 6
  OSR1 expression in step 2: enhancement
[1]; BMS493 1 μM added in step 3
  expression level of SF1-EGFP: slightly increased
  induction efficiency of SF1-positive cells: poor
[1]; BMS493 1 μM for 48 hours in step 3, WTGBNG No. 1 strain
  expression level of WT1: slightly decreased
[1]
  induction of NR5A1-positive cells: no particular advantage

## O=C(NOC[C@H](O)CO)c1ccc(F)c(F)c1Nc1ccc(I)cc1F [PD0325901]
Human iPS cells [3]; PD0325901 not added in step 2, day 15 of induction
  NR5A1-positive cells: not observed at all
Human iPS cells [3]; PD0325901 weak in step 2 (0.4-1.0 μM tested), day 15
  NR5A1-positive cells: did not appear
Human iPS cells [3]; step 2, KSR 7 v/v %, day 15
  PD0325901 concentration with the highest differentiation induction efficiency: 1.0 µM
[1]; FACS day 16, NGFT No. 69 strain
  optimum concentration of PD0325901 in step 2: 1 µM
[1]; MEK downstream of FGF inhibited with PD0325901 1 μM in step 3, FACS day 16
  induction efficiency: higher
[1]; PD03 added in step 3, WTGBNG No. 1
  number of the induced cells: reduced
[1]; [6]
  induction efficiency: improved
  number of induced cells: decreased
[1]; addition of PD0325901 in step 3, without addition of SHH, WTGBNG No. 1
  induction efficiency: the highest
[1]
  concentration considered the best in step 2: 1 µM
[1]; none, 48 hours, 96 hours tested, NG-Puro strain
  optimum addition period of PD03 in step 3: 48 h
[1]; [7]
  induction efficiency: further increased
[1]; [8]
  number of induced cells: decreased
[1]; step 2: PD0325901 3, 1, 0.3, 0 μM or FGF9 20 ng/ml, day 6
  size (embryoid bodies) at the end of step 2: improved as the amount of PD0325901 was reduced

## bFGF: basic fibroblast growth factor (FGF2)
Human iPS cells [3]; added between day 2 and day 4 of induction, step 1 plane culture
  states of the embryoid bodies: poor (dead)
Human iPS cells [3]; bFGF not present in step 1 (versus added)
  differentiation induction efficiency: higher
Human iPS cells [4]
  expression of the marker gene of posteriorization: not recognized
[1]; added in step 1: bFGF 50 ng/mL entire period, Activin A 10 ng/ml one day from day 1, FACS days 2, 4, 6
  expression of OSR1: acted toward enhancing the expression of OSR1
[1]; addition of bFGF in step 1, periods 2-2-12 (days), day 16
  NR5A1-positive cells: no significant change
[1]; addition of bFGF in step 1, periods 3-3-10 (days), day 16
  NR5A1-positive cell induction efficiency: remarkable improvement
[1]; bFGF 50 ng/ml and Activin A 10 ng/ml (only from day 1) in step 1, days 14 and 21
  improvement of the induction of NR5A1-positive cells: not recognized
[1]; periods 3-3-10 (days), day 16
  concentration in step 1 at which number and proportion of the positive cells were maximal: 5 ng/mL

## CC1=C(/C=C/C(C)=C/C=C/C(C)=C/C(=O)O)C(C)(C)CCC1 [RA, retinoic acid]
[1]; 0, 0.3, 1, 3, 10 μM tested, FACS day 16
  concentration of RA in step 2 at which induction efficiency for NR5A1-positive cells was particularly excellent: ≥ 3 µM
[1]
  concentration considered the best in step 2: 3 µM

## c1ccc2c(-c3cnn4cc(-c5ccc(N6CCNCC6)cc5)cnc34)ccnc2c1 [LDN193189]
[5]
  expression of FOXF1: almost disappeared
[1]
  induction of NR5A1-positive cells: no particular advantage
[1]; addition of LDN in step 1 (30, 100, 1,000 nM), days 14, 17, 21
  improvement in the proportion of NR5A1-positive cells: almost no improvement
[1]; [9]
  OSR1 expression at the end point of step 1 (day 2.2): decreased
  increase in OSR1 expression in step 2 (days 4 and 6): became weaker

## CNC1CCC(N(Cc2cccc(-c3ccncc3)c2)C(=O)c2sc3ccccc3c2Cl)CC1 (stereo not shown) [SAG]
[1]; SAG 100 nM, FACS day 16
  replacement of SHH in step 2: SHH can be replaced with SAG

## Cc1c[nH]c(-c2cnc(NCCNc3ccc(C#N)cn3)nc2-c2ccc(Cl)cc2Cl)n1 [CHIR99021]
Human iPS cells [3]; CHIR99021 15 μM as compared to 10 μM in step 1
  proportion of NR5A1-positive cells: excellent
[2]; CHIR 10 μM in step 1, regardless of the concentration of BMP4
  expression of OSR1: confirmed
[2]; step 1
  optimum concentration of CHIR for induction of the intermediate mesoderm: ≥ 10 µM
[2]; step 1 of 2 days, FACS day 2, TGOT No. 25 strain
  concentration of CHIR99021 at which TBXT can be expressed with high efficiency: ≥ 8 µM
[1]; CHIR 20 μM in step 1, culture until day 17, NGFT No. 69 strain
  NR5A1-positive cells: a number of NR5A1-positive cells were observed
[1]; step 1, at a transition to step 2, FACS days 4 and 6
  concentration of CHIR99021 at which OSR1 can be expressed with high efficiency: ≥ 14 µM
